In ChEMBL document CHEMBL1921784, “Benzobistriazinones and related heterocyclic ring systems as potent, orally bioavailable positive allosteric AMPA receptor modulators” (Bioorg Med Chem Lett, 2011):
The source made the active and inactive calls. The calls are words filed in the database; no cut-off is given here.

What was measured:
Rattus norvegicus [1] = assay: Positive allosteric modulation of AMPA receptor in Sprague-Dawley rat adult hippocampus dentate gyrus assessed as increase in field excitatory postsynaptic potential amplitude at 20 mg/kg, ip infused for 30 mins relative to baseline; type: functional; settings: route intraperitoneal
Rattus norvegicus [2] = organism: Rattus norvegicus; assay: Positive allosteric modulation of AMPA receptor in Sprague-Dawley rat embryonic hippocampal neuron assessed as concentration required to double the steady-state glutamate-induced current by patch-clamp assay; settings: Hippocampus
Rattus norvegicus [3] = assay: Positive allosteric modulation of AMPA receptor in Sprague-Dawley rat adult hippocampus dentate gyrus assessed as increase in field excitatory postsynaptic potential amplitude at 5 mg/kg, ip infused for 30 mins relative to baseline; type: functional
[4] = Half life in rat; type: ADME, organism-based; settings: in vivo
Rattus norvegicus [5] = assay: Positive allosteric modulation of AMPA receptor in Sprague-Dawley rat adult hippocampus dentate gyrus assessed as increase in field excitatory postsynaptic potential amplitude at 10 mg/kg, ip infused for 30 mins relative to baseline; type: functional; settings: route intraperitoneal
Rattus norvegicus [6] = assay: Positive allosteric modulation of AMPA receptor in Sprague-Dawley rat adult hippocampus dentate gyrus assessed as increase in field excitatory postsynaptic potential amplitude at 1 mg/kg, ip infused for 30 mins relative to baseline; type: functional; settings: route intraperitoneal
[7] = Half life in cynomolgus monkey; type: ADME, organism-based, Macaca fascicularis; settings: in vivo
[8] = Half life in dog; type: ADME, organism-based, Canis lupus familiaris; settings: in vivo
[9] = Oral bioavailability in rat; type: ADME, organism-based; settings: in vivo
[10] = Oral bioavailability in cynomolgus monkey; type: ADME, organism-based, Macaca fascicularis; settings: in vivo
Rattus norvegicus [11] = assay: Positive allosteric modulation of AMPA receptor in Sprague-Dawley rat adult hippocampus dentate gyrus assessed as increase in field excitatory postsynaptic potential amplitude at 3 mg/kg, ip infused for 30 mins relative to baseline; type: functional; settings: route intraperitoneal

SMILES	CD (Rattus norvegicus [2]) [µM]	Activity (Rattus norvegicus [3]; route intraperitoneal) [%]	other results
C[C@H](Cn1nccn1)n1cnc2cc3c(=O)n(C)nnc3cc2c1=O	–	–	Activity (Rattus norvegicus [1]): 30%
C[C@H](CNS(C)(=O)=O)n1nnc2cc3c(=O)n(C4CC4)nnc3cc2c1=O	0.7	–	Activity (Rattus norvegicus [3]): inactive
C[C@H](Cn1ncnn1)n1nnc2cc3c(cc2c1=O)OCN(C1CC1)C3=O	–	–	half-life [4]: 0.27 h
C[C@H](Cn1cccn1)n1cnc2cc3c(=O)n(C4CC4)nnc3cc2c1=O	–	–	Activity (Rattus norvegicus [5]): 20%
C[C@H](Cn1cnnn1)n1cnc2cc3c(=O)n(C4CC4)nnc3cc2c1=O	0.07	2	–
C[C@H](Cn1cccn1)n1cnc2cc3c(=O)n([C@H](C)Cn4cccn4)cnc3cc2c1=O	0.09	2	–
C[C@H](Cn1cnnn1)n1nnc2cc3c(=O)n(C4CC4)nnc3cc2c1=O	0.07	11	–
C#C[C@H](Cc1cccc(F)c1)n1nnc2cc3c(=O)n(C4CC4)nnc3cc2c1=O	0.45	1	–
C=CCn1nnc2cc3c(=O)n([C@H](C)Cn4ncnn4)nnc3cc2c1=O	–	12	–
CC(C)n1nnc2cc3c(=O)n([C@H](C)Cn4ncnn4)nnc3cc2c1=O	0.44	26	–
C[C@H](Cn1ncnn1)n1nnc2cc3c(=O)n([C@H](C)Cn4ncnn4)nnc3cc2c1=O	0.016	–	Activity (Rattus norvegicus [6]): 59%
C#C[C@H](Cn1ncnn1)n1nnc2cc3c(=O)n(C4CC4)nnc3cc2c1=O	–	4	–
C[C@H](Cn1ncnn1)n1nnc2cc3c(=O)n(C4CC4)nnc3cc2c1=O	0.28	37	half-life [7]: 9.5 h; half-life [8]: 3 h; half-life [4]: 1.7 h; bioavailability [9]: 100%; bioavailability [10]: 100%
C[C@H](Cn1ncnn1)n1nnc2cc3c(=O)n(C4CC4)cnc3cc2c1=O	1	16	–
CC#CCn1nnc2cc3c(=O)n([C@H](C)Cn4ncnn4)nnc3cc2c1=O	–	43	–
C[C@H](Cn1ncnn1)n1cnc2cc3c(=O)n(CCF)nnc3cc2c1=O	–	–	Activity (Rattus norvegicus [5]): 32%
C[C@H](Cn1ncnn1)n1cnc2cc3c(=O)n(C)nnc3cc2c1=O	–	63	–
C[C@H](Cn1ncc(C#N)n1)n1cnc2cc3c(=O)n(C4CC4)nnc3cc2c1=O	–	–	Activity (Rattus norvegicus [5]): 3%
C[C@H](Cn1ccnn1)n1nnc2cc3c(=O)n(C)nnc3cc2c1=O	0.09	7	–
C[C@H](Cn1cnnn1)n1nnc2cc3c(=O)n(C)nnc3cc2c1=O	0.08	19	–
C[C@H](Cn1ccnn1)n1cnc2cc3c(=O)n(C)nnc3cc2c1=O	–	–	Activity (Rattus norvegicus [1]): 5%
C[C@H](Cn1nccn1)n1nnc2cc3c(=O)n(C4CC4)nnc3cc2c1=O	1.3	–	Activity (Rattus norvegicus [5]): 12%
C[C@H](Cn1ncnn1)n1cnc2cc3c(=O)n(CC(F)(F)F)nnc3cc2c1=O	–	–	Activity (Rattus norvegicus [5]): 7%
C#CCn1nnc2cc3c(=O)n([C@H](C)Cn4ncnn4)cnc3cc2c1=O	0.5	11	–

SMILES	CD (Rattus norvegicus [2]) [µM]	Activity (Rattus norvegicus [3]; route intraperitoneal) [%]	other results
C[C@H](Cn1cncn1)n1nnc2cc3c(=O)n(C4CC4)nnc3cc2c1=O	1.1	7	–
C[C@H](Cn1ncc(C#N)n1)n1nnc2cc3c(=O)n(C4CC4)nnc3cc2c1=O	–	17	–
C[C@H](Cn1ncnn1)n1cnc2cc3c(=O)n([C@H](C)Cn4ncnn4)nnc3cc2c1=O	0.008	–	Activity (Rattus norvegicus [6]): 43%
C[C@H](Cn1ncnn1)n1cnc2cc3c(=O)n([C@H](C)Cn4ncnn4)cnc3cc2c1=O	0.03	0	–
C[C@H](Cn1nccn1)n1cnc2cc3c(=O)n(C4CC4)nnc3cc2c1=O	–	–	Activity (Rattus norvegicus [5]): 9%
CCn1nnc2cc3c(=O)n([C@H](C)Cn4ncnn4)nnc3cc2c1=O	0.3	34	–
C[C@H](Cn1nccn1)n1nnc2cc3c(=O)n(C)nnc3cc2c1=O	2.1	7	–
C[C@H](Cn1cc(C#N)cn1)n1cnc2cc3c(=O)n(C4CC4)nnc3cc2c1=O	–	2	–
O=c1c2cc3nnn(C4CC4)c(=O)c3cc2nnn1CCn1ncnn1	–	1	–
C[C@H](Cn1ccnn1)n1nnc2cc3c(=O)n([C@H](C)Cn4ccnn4)nnc3cc2c1=O	0.06	–	Activity (Rattus norvegicus [11]): 0%
C#CCn1nnc2cc3c(=O)n([C@H](C)Cn4cnnn4)cnc3cc2c1=O	0.25	1	–
C[C@H](Cn1ncnn1)n1nnc2cc3c(=O)n(C)nnc3cc2c1=O	0.28	46	–
C#CCn1nnc2cc3c(=O)n([C@H](C)Cn4ncnn4)nnc3cc2c1=O	0.57	20	–
C[C@H](Cn1ncnn1)n1cnc2cc3c(=O)n(CC(F)F)nnc3cc2c1=O	–	–	Activity (Rattus norvegicus [1]): 16%
COCCn1nnc2cc3c(=O)n([C@H](C)Cn4ncnn4)nnc3cc2c1=O	–	34	–
C[C@H](Cn1ccnn1)n1nnc2cc3c(=O)n(C4CC4)nnc3cc2c1=O	0.37	–	Activity (Rattus norvegicus [5]): 24%
C[C@H](Cn1ncnn1)n1cnc2cc3c(=O)n(C4CC4)cnc3cc2c1=O	1.4	2	–
O=c1c2cc3nnn(C4CC4)c(=O)c3cc2ncn1CCn1ncnn1	–	7	–
C[C@H](Cn1nccn1)n1nnc2cc3c(=O)n([C@H](C)Cn4ncnn4)nnc3cc2c1=O	0.07	–	Activity (Rattus norvegicus [11]): 26%
Cc1nnnn1C[C@@H](C)n1nnc2cc3c(=O)n(C4CC4)nnc3cc2c1=O	0.25	8	–
C[C@H](Cn1ncnn1)n1cnc2cc3c(=O)n(C4CC4)nnc3cc2c1=O	0.6	33	half-life [8]: 4.8 h; half-life [4]: 1.6 h; bioavailability [9]: 100%
Cc1nnn(C[C@@H](C)n2nnc3cc4c(=O)n(C5CC5)nnc4cc3c2=O)n1	3.1	7	–
C[C@H](Cn1ncnn1)n1cnc2cc3c(=O)n([C@H](C)Cn4cnnn4)nnc3cc2c1=O	0.02	1	–
C[C@H](Cn1nccn1)n1nnc2cc3c(=O)n([C@H](C)Cn4nccn4)nnc3cc2c1=O	0.4	9	–
